Data from patent US10093630B2, “Pyrazole compounds and methods of making and using same” (ABIDE THERAPEUTICS, INC., priority 2014, dated 2018).

Legend:
Test in all cases: In vitro competitive activity-based protein profiling (gel-based, FP-Rh or HT-01 probe)
Type in all cases: biochemical
MAGL = biological target: T1, MAGL (Mus musculus, UniProt O35678); conditions: for inhibition at 1 µM: 1 μM inhibitor; for inhibition at 10 µM: 10 μM inhibitor; for IC50: mouse brain membrane fraction or cell lysates, 30 min preincubation at 37° C., read-out: Mouse (IC50 value, nM) MAGL
T1 construct: Proteomes (mouse brain membrane fraction or cell lysates); from tissue; host or cells: mouse brain membrane fraction (or cell lysates, not specified)
T1 sequence (O35678 1-303): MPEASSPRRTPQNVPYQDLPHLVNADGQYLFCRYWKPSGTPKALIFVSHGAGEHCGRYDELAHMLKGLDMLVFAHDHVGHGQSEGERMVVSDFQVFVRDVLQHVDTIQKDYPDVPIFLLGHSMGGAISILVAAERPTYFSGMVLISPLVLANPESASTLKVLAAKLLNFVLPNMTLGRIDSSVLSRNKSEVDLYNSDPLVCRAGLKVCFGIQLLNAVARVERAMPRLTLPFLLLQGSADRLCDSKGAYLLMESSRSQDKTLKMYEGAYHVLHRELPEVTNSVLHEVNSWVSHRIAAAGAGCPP
Procedure, shortened: (§1)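 Read-out: fluorescent band intensity on SDS-PAGE gels, reporting remaining serine hydrolase activity. Before that, proteome (mouse brain membranes or cell lysates, 1.0 mg/mL) saw a range of inhibitor concentrations for 30 min at 37° C, followed by 30 min probe labelling (FP-Rh or HT-01).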

PLA2G7 = biological target: T2, PLA2G7 (Mus musculus, UniProt Q60963); conditions: for inhibition at 1 µM: 1 μM inhibitor, read-out: % Inhibition at 1 μM, D = PLA2G7; for inhibition at 10 µM: 10 μM inhibitor, read-out: % Inhibition at 10 μM, D = PLA2G7; for IC50: mouse brain membrane fraction or cell lysates, 30 min preincubation at 37° C.
T2 construct: Proteomes (mouse brain membrane fraction or cell lysates); from tissue; host or cells: mouse brain membrane fraction (or cell lysates, not specified)
T2 sequence (Q60963 22-440): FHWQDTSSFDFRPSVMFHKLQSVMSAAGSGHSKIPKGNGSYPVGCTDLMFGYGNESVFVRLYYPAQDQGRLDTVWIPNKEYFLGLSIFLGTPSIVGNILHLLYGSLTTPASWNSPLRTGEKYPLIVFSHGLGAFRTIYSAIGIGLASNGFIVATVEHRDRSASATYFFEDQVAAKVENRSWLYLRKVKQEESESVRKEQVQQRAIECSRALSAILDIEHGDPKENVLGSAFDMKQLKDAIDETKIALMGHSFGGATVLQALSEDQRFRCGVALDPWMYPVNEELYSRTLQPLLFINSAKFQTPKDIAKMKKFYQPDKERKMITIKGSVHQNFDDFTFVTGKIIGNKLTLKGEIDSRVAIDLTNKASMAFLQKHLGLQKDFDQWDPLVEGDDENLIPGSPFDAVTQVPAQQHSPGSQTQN
Procedure, shortened: as §1

ABHD6 = biological target: T3, ABHD6 (Mus musculus, UniProt Q8R2Y0); conditions: for inhibition at 1 µM: 1 μM inhibitor, read-out: % Inhibition at 1 μM, C = ABHD6; for inhibition at 10 µM: 10 μM inhibitor, read-out: % Inhibition at 10 μM, C = ABHD6; for IC50: mouse brain membrane fraction or cell lysates, 30 min preincubation at 37° C., read-out: Mouse (IC50 value, nM) ABHD6
T3 construct: Proteomes (mouse brain membrane fraction or cell lysates); from tissue; host or cells: mouse brain membrane fraction (or cell lysates, not specified)
T3 sequence (Q8R2Y0 1-336): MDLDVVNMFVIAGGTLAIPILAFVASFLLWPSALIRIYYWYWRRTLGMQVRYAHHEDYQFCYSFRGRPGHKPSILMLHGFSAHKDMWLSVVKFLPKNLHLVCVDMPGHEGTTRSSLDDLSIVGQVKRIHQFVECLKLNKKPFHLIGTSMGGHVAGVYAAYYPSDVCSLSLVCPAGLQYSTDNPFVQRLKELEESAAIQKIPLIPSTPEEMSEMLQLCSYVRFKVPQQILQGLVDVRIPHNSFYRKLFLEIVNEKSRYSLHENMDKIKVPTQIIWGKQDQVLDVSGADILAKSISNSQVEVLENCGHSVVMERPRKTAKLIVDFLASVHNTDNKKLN
Procedure, shortened: as §1

FAAH = biological target: T4, FAAH (Mus musculus, UniProt O08914); conditions: for inhibition at 1 µM: 1 μM inhibitor, read-out: % Inhibition at 1 μM, B = FAAH; for inhibition at 10 µM: 10 μM inhibitor, read-out: % Inhibition at 10 μM, B = FAAH; for IC50: mouse brain membrane fraction or cell lysates, 30 min preincubation at 37° C., read-out: Mouse (IC50 value, nM) FAAH
T4 construct: Proteomes (mouse brain membrane fraction or cell lysates); from tissue; host or cells: mouse brain membrane fraction (or cell lysates, not specified)
T4 sequence (O08914 1-579): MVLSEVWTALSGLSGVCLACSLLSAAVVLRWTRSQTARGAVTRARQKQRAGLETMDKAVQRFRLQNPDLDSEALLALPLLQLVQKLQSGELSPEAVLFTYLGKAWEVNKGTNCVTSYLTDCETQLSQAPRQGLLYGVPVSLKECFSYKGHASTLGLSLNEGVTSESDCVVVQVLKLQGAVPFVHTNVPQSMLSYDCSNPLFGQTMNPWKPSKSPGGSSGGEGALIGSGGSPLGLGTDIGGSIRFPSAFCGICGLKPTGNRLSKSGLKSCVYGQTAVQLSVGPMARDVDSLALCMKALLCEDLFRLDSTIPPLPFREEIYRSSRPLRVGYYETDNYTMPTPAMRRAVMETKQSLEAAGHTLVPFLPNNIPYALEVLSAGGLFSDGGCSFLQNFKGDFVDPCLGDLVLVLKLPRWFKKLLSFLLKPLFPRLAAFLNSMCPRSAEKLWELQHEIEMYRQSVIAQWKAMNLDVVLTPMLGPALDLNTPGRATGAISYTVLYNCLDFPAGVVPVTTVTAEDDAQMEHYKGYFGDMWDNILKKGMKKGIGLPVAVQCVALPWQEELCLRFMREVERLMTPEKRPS
Procedure, shortened: as §1

**Q.** What does the source list for `O=C(N1CCN(c2ccc(Cl)cc2)CC1)n1cc(C(F)(F)F)cn1` [Example 229, (4-(4-Chlorophenyl)piperazin-1-yl)(4-(trifluoromethyl)-1H-pyrazol-1-yl)methanone]?
**A.** inhibition at 1 µM (MAGL): > 75%; inhibition at 10 µM (MAGL): > 75%; inhibition at 1 µM (PLA2G7): > 75%; inhibition at 10 µM (PLA2G7): > 75%; inhibition at 1 µM (ABHD6): > 75%; inhibition at 10 µM (ABHD6): > 75%; inhibition at 1 µM (FAAH): > 75%; inhibition at 10 µM (FAAH): > 75%

**Q.** Which results are given for `Cc1ccccc1N1CCN(C(=O)n2cc(C(F)(F)F)cn2)CC1` [Example 230, (4-o-Tolylpiperazin-1-yl)(4-(trifluoromethyl)-1H-pyrazol-1-yl)methanone]?
**A.** inhibition at 1 µM (MAGL): > 75%; inhibition at 10 µM (MAGL): > 75%; inhibition at 1 µM (PLA2G7): > 75%; inhibition at 10 µM (PLA2G7): > 75%; inhibition at 1 µM (ABHD6): > 75%; inhibition at 10 µM (ABHD6): > 75%; inhibition at 1 µM (FAAH): > 75%; inhibition at 10 µM (FAAH): > 75%

**Q.** `Cc1cccc(N2CCN(C(=O)n3cc(C(F)(F)F)cn3)CC2)c1` [Example 231, (4-m-Tolylpiperazin-1-yl)(4-(trifluoromethyl)-1H-pyrazol-1-yl)methanone] was tested. Which inhibition at 1 µM (MAGL) did it give?
**A.** > 75%

**Q.** What about the inhibition at 10 µM (MAGL) of the same compound?
**A.** > 75%

**Q.** And the inhibition at 1 µM (PLA2G7)?
**A.** > 75%

**Q.** And the inhibition at 10 µM (PLA2G7)?
**A.** > 75%

**Q.** What about the inhibition at 1 µM (ABHD6) of the same compound?
**A.** > 75%

**Q.** And the inhibition at 10 µM (ABHD6)?
**A.** > 75%

**Q.** And the inhibition at 1 µM (FAAH)?
**A.** > 75%

**Q.** What about the inhibition at 10 µM (FAAH) of the same compound?
**A.** > 75%

**Q.** With `Cc1ccc(N2CCN(C(=O)n3cc(C(F)(F)F)cn3)CC2)cc1` [Example 232, (4-p-Tolylpiperazin-1-yl)(4-(trifluoromethyl)-1H-pyrazol-1-yl)methanone] as the compound, how does the inhibition at 1 µM (MAGL) read?
**A.** > 75%

**Q.** And the inhibition at 10 µM (MAGL)?
**A.** > 75%

**Q.** What about the inhibition at 1 µM (PLA2G7) of the same compound?
**A.** > 75%

**Q.** And the inhibition at 10 µM (PLA2G7)?
**A.** > 75%

**Q.** What about the inhibition at 1 µM (ABHD6) of the same compound?
**A.** > 75%

**Q.** What about the inhibition at 10 µM (ABHD6) of the same compound?
**A.** > 75%

**Q.** What about the inhibition at 1 µM (FAAH) of the same compound?
**A.** > 75%

**Q.** What about the inhibition at 10 µM (FAAH) of the same compound?
**A.** > 75%

**Q.** Which inhibition at 1 µM (MAGL) does the source give for `COc1ccccc1N1CCN(C(=O)n2cc(C(F)(F)F)cn2)CC1` [Example 233, (4-(2-Methoxyphenyl)piperazin-1-yl)(4-(trifluoromethyl)-1H-pyrazol-1-yl)methanone] here?
**A.** > 75%

**Q.** What about the inhibition at 10 µM (MAGL) of the same compound?
**A.** > 75%

**Q.** What about the IC50 (MAGL) of the same compound?
**A.** < 100 nM

**Q.** What about the inhibition at 1 µM (PLA2G7) of the same compound?
**A.** > 75%

**Q.** What about the inhibition at 10 µM (PLA2G7) of the same compound?
**A.** > 75%

**Q.** What about the IC50 (PLA2G7) of the same compound?
**A.** < 100 nM

**Q.** And the inhibition at 1 µM (ABHD6)?
**A.** > 75%

**Q.** What about the inhibition at 10 µM (ABHD6) of the same compound?
**A.** > 75%

**Q.** What about the IC50 (ABHD6) of the same compound?
**A.** < 100 nM

**Q.** What about the inhibition at 1 µM (FAAH) of the same compound?
**A.** > 75%

**Q.** What about the inhibition at 10 µM (FAAH) of the same compound?
**A.** > 75%

**Q.** And the IC50 (FAAH)?
**A.** < 100 nM

**Q.** `COc1cccc(N2CCN(C(=O)n3cc(C(F)(F)F)cn3)CC2)c1` [Example 234, (4-(3-Methoxyphenyl)piperazin-1-yl)(4-(trifluoromethyl)-1H-pyrazol-1-yl)methanone] was tested. Which inhibition at 1 µM (MAGL) did it give?
**A.** > 75%

**Q.** What about the inhibition at 10 µM (MAGL) of the same compound?
**A.** > 75%

**Q.** What about the IC50 (MAGL) of the same compound?
**A.** < 100 nM

**Q.** And the inhibition at 1 µM (PLA2G7)?
**A.** > 75%

**Q.** What about the inhibition at 10 µM (PLA2G7) of the same compound?
**A.** > 75%

**Q.** And the IC50 (PLA2G7)?
**A.** < 100 nM

**Q.** And the inhibition at 1 µM (ABHD6)?
**A.** > 75%

**Q.** What about the inhibition at 10 µM (ABHD6) of the same compound?
**A.** > 75%

**Q.** And the IC50 (ABHD6)?
**A.** < 100 nM

**Q.** What about the inhibition at 1 µM (FAAH) of the same compound?
**A.** > 75%

**Q.** What about the inhibition at 10 µM (FAAH) of the same compound?
**A.** > 75%

**Q.** What about the IC50 (FAAH) of the same compound?
**A.** < 100 nM
